{
  "source": "patent US9814720B2",
  "about": "“Compositions and methods of inhibiting IL-17 expression of neutrophils” (priority 2014, dated 2017)",
  "key": {"[1]": {"tested_on": "human peripheral blood neutrophils", "test": "ROS production (CFDA) by human peripheral blood neutrophils incubated with Aspergillus hyphae", "type": "cell-based", "settings": "IL-6/23-stimulated, inhibitor 20 μM, FIG. 6E", "procedure": "(§1) Murine and human neutrophils were incubated with p-STAT3 (20 μM Stattic or 20 μM INC424) or RORγt inhibitors (20 μM SR1001) for 2 h. Then the cells were stimulated with […] of rIL-6 and 2 μg/ml of rIL-23 for 3 h, washed, and 2×10^5 bone marrow-derived murine neutrophils or 10^5 human peripheral blood neutrophils, with or without recombinant IL-17A, were added to each well with growing hyphae. RPMI media was used as positive control (unimpaired growth), and PBS was used as a negative control (no growth (data not shown)). After 16 h the wells were washed with PBS and the dsRed fungal mass was quantified in a 96-well fluorometer at 550/600 nm excitation/emission filter (Synergy HT, Biotek).\nIn vitro ROS production measured by CFDA was previously described. Briefly, 100 μg/100 μl of A. fumigatus hyphal extract (AspHE) were incubated with 2×10^5 murine or human neutrophils. Neutrophils were treated for 1 h with 1 μM Carboxyfluorescein diacetate (H2CFDA (Sigma)), which will fluoresce following ROS oxidation. Neutrophils were collected and analyzed by flow cytometry. H2CFDA pulsed neutrophils that had not been incubated with AspHE were used to set the ROS histogram gate. The average mean intensity was calculated by Accuri flow software and graphed in Prism."}, "[2]": {"tested_on": "p-STAT3", "test": "STAT3 phosphorylation in IL-6/23-stimulated murine bone marrow neutrophils (flow cytometry)", "type": "cell-based, C57BL/6 mice", "settings": "inhibitor 20 μM, 1 h IL-6+IL-23, FIG. 4C", "source_text": "Total bone marrow-derived cells were isolated from mouse femurs and tibias by flushing with RPMI and an 18-gauge needle. Erythrocytes were lysed with 1× lysis buffer (eBioscience), and bone marrow cells were separated on a Percoll (Fisher) gradient by density centrifugation (52%, 69%, and 78%). Cells at the 69-78% interface were harvested, and neutrophil purity (>98%) confirmed by flow cytometry and Wright-Giemsa staining. Murine or human neutrophils were suspended at a density of 10^6 cells/ml and incubated with […] of recombinant mouse or human IL-6 and 2 μg/ml IL-23 in RPMI, and the cells were maintained for 1-3 h at 37° C. in 5% CO2. Various inhibitors were used for assessing STAT3 activation. […] For the determination of RORγt-dependent signaling, SR1001 (20 μM; Sigma) was used, which inhibits RORγt binding to the IL-17 promoter site. All inhibitors were added to neutrophils 2 h prior to recombinant IL-6 and IL-23 stimulation. Corneas were dissected and incubated for 1 h at 37° C. in collaganese (80 U/ml) (C0130; Sigma-Aldrich), and washed in FACS buffer (PBS+1% FBS+0.5% Sodium azide). Ten corneas were pooled and analyzed by intracellular flow cytometry. Conversely, bone marrow cells or neutrophils were collected as described above and washed in FACS buffer. […] Cells were analyzed using a C6 Accuri flow cytometer (BD). […]"}, "[3]": {"tested_on": "A. fumigatus hyphae", "test": "In vitro fungal killing assay (hyphal coincubation) with human neutrophils", "type": "cell-based, Aspergillus fumigatus", "settings": "IL-6/23-stimulated, inhibitor 20 μM, FIG. 6F", "source_text": "Aspergillus strains—For cornea infections and in vitro fungal killing assays, an RFP expressing strain of A. fumigatus (Af-dsRed) was used. This strain is gpdA promoter driven to constitutively express monomeric dsRed. For subcutaneous “priming” injections, heat-killed, swollen conidia Aspergillus fumigatus strain Af-BP was used. For the Aspergillus hyphal extract used in ROS assay, A. fumigatus strain Af-BP hyphae were pulverized in liquid nitrogen, filtered through a 30 μm pre-separation filter (Miltenyi Biotec) and protein measured by the BCA method (Pierce). Aspergillus hyphal extracts (AspHE) were stored at −20° C. and used at a final concentration of 1 mg/ml.\nA hyphal coincubation assay was used to study the ability of murine and human neutrophils to inhibit A. fumigatus hyphal growth as described. Briefly, 12,500 A. fumigatus dsRed expressing conidia (strain Af-dsRed) per 200 μl Sabouraud dextrose media were added to wells of black-walled 96 well plates with an optically clear bottom (CoStar 3720). After 6 h, the conidia had germinated and the hyphae became adherent to the wells, at which time the medium was removed.\nas §1"}},
  "data": [
    {"smiles": "O=[N+]([O-])c1ccc2c(c1)S(=O)(=O)C=C2", "note": "[Stattic]", "values": [
      {"measurement": "ROS production", "setting": "[1]; plus rhIL-17A", "result": "increased ROS"},
      {"measurement": "ROS production", "setting": "[1]; without rhIL-17A", "result": "no increase in ROS"},
      {"measurement": "p-STAT3 in IL-6/23 stimulated neutrophils", "setting": "[2]", "result": "completely inhibited"},
      {"measurement": "fluorescent fungal mass", "setting": "[3]; plus rhIL-17A", "result": "decreased fungal mass"},
      {"measurement": "fluorescent fungal mass", "setting": "[3]; without rhIL-17A", "result": "no increase in ROS (FIG. 6E) or decrease in fluorescent fungal mass"}
    ]}
  ]
}
